SMILES strings stand for the structures. Where only a bound is given, the exact number is not on record here.

Experiment [1] addresses DNA topoisomerase 2-alpha (Homo sapiens) (UniProt P11388). Description: Inhibition of human DNA topoisomerase 2alpha assessed as relaxation of supercoiled pBR322 DNA at 20 uM after 30 mins using ethidium bromide staining by agarose gel electrophoresis.
A short description of experiment [2]: Cytotoxicity against human MCF10A cells after 2 days by CCK8 assay. Format: cell-based. The following applies: MCF-10A, 48 h. (Formazan colour is commonly taken as a measure of viable cells.)
Another experiment relates to DU-145. Description: Cytotoxicity against human DU145 cells after 2 days by CCK8 assay. Format: functional, cell-based. The following applies: DU-145, 48 h.
The subject of another experiment is T47D. Kind of experiment: Cytotoxicity against human T47D cells after 2 days by CCK8 assay. Format: functional, cell-based. The settings on record: 48 h.
Experiment [3] concerns the target T1, DNA topoisomerase 1 (Homo sapiens) (UniProt P11387).
T1 sequence (whole entry): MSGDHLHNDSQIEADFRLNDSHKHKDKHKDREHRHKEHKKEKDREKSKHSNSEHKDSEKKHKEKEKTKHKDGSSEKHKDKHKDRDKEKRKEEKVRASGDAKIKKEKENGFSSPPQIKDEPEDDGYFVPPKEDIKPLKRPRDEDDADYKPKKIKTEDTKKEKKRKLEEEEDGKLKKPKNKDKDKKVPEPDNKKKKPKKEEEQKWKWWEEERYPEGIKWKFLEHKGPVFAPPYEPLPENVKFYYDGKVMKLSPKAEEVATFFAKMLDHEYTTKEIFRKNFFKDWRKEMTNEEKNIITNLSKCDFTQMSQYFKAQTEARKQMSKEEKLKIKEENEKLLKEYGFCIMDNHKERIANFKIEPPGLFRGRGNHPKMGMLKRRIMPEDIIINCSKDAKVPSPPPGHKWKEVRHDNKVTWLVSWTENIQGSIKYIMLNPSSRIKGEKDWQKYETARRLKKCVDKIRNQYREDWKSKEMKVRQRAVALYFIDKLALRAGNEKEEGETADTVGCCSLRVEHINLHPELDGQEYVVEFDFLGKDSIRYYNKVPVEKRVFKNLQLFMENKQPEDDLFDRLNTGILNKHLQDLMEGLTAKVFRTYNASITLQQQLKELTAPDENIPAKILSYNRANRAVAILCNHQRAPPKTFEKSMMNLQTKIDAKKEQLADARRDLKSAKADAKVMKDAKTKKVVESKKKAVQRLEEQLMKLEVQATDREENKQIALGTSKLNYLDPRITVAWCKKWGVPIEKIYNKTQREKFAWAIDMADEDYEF
Kind of experiment: Inhibition of human recombinant DNA topoisomerase 1 assessed as relaxation of supercoiled pBR322 DNA at 100 uM after 30 mins using ethidium bromide staining by agarose gel electrophoresis.

Another experiment has as its system HCT-15. Description: Cytotoxicity against human HCT15 cells after 2 days by CCK8 assay. The experiment is classed as functional, cell-based. The settings on record: HCT-15, 48 h.
In experiment [4] the target is DNA topoisomerase 2-alpha (Homo sapiens) (UniProt P11388). Kind of experiment: Inhibition of human DNA topoisomerase 2alpha assessed as relaxation of supercoiled pBR322 DNA at 100 uM after 30 mins using ethidium bromide staining by agarose gel electrophoresis.
Experiment [5] concerns the target T1, DNA topoisomerase 1 (Homo sapiens). Description: Inhibition of human recombinant DNA topoisomerase 1 assessed as relaxation of supercoiled pBR322 DNA at 20 uM after 30 mins using ethidium bromide staining by agarose gel electrophoresis.

Chain of DNA topoisomerase 2-alpha (Homo sapiens) (P11388 whole entry): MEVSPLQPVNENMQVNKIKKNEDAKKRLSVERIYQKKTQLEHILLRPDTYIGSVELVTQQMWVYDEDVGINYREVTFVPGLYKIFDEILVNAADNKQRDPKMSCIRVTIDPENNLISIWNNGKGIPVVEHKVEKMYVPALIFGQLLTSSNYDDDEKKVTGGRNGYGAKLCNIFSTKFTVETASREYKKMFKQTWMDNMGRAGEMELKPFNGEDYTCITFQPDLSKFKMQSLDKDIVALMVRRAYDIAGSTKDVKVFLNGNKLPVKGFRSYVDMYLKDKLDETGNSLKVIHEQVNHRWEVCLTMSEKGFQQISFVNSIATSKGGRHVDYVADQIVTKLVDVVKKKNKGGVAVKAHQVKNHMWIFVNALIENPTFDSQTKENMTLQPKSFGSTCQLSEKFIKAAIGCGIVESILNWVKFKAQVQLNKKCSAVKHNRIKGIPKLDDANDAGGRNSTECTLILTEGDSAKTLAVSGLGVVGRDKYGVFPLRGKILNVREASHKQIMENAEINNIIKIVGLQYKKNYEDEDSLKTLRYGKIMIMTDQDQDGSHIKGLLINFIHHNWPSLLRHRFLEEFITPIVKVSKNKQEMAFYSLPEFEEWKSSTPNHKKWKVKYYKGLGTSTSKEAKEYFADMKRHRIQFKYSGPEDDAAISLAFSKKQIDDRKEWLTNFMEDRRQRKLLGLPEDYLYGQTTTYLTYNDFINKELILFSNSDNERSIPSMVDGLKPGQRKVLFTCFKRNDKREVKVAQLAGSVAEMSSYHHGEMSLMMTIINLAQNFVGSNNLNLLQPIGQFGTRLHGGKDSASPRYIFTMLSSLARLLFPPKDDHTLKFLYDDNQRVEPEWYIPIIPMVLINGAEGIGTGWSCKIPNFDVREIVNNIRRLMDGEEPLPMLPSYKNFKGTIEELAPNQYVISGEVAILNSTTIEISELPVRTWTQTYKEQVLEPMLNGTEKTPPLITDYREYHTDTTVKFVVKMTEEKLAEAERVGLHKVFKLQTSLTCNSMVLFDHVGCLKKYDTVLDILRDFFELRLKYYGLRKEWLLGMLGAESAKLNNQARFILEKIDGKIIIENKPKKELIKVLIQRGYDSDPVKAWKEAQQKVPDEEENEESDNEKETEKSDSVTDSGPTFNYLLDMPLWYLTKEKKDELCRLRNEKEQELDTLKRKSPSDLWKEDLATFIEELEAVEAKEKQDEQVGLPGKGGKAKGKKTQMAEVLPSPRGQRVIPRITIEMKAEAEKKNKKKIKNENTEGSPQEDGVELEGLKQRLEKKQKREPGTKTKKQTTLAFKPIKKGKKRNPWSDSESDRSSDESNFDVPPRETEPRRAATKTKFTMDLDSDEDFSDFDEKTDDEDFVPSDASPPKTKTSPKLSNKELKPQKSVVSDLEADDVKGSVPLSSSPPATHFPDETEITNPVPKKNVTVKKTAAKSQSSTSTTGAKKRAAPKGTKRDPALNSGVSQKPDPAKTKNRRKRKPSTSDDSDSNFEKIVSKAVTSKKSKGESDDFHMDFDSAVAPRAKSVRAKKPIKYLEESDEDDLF

As for `Oc1cccc(-c2cc(-c3ccccc3O)c3c(n2)-c2ccccc2OC3)c1`, the inhibition was 4.8% in experiment [1], 3.3% in experiment [3] and 92.1% in experiment [4]. The IC50 was 3420 nM in experiment [2], 630 nM with DU-145, 2170 nM in the experiment with T47D and 1010 nM in the experiment on HCT-15.

Turning to `Oc1ccc(-c2cc(-c3cccc(O)c3)c3c(n2)-c2ccccc2OC3)cc1`, the results for the inhibition in experiment [1], in experiment [3] and in experiment [4] were 1.8%, 5.3% and 93%, respectively. Also, the IC50 is 4640 nM in experiment [2], 2060 nM with DU-145, 2370 nM with T47D and 2980 nM with HCT-15.

For `Oc1ccc(-c2cc(-c3ccc(O)cc3)c3c(n2)-c2ccccc2OC3)cc1`, the inhibition in experiment [1] was determined as 10.3%; in experiment [3] it was 2.8%; in experiment [4], 97.2%. Further, the 50% inhibitory concentration (IC50) was found to be 1900 nM in experiment [2], 3800 nM in the experiment with DU-145, 780 nM with T47D and 690 nM with HCT-15.

As to `CC[C@@]1(O)C(=O)OCc2c1cc1n(c2=O)Cc2cc3ccccc3nc2-1` [CAMPTOTHECIN], the figures for the IC50 (in experiment [2]; in the experiment on T47D; in the experiment on HCT-15) were 970 nM, 80 nM and 300 nM, respectively.

With `COc1cccc2c1C(=O)c1c(O)c3c(c(O)c1C2=O)C[C@@](O)(C(=O)CO)C[C@@H]3O[C@H]1C[C@H](N)[C@H](O)[C@H](C)O1` [DOXORUBICIN], the concentration for half-maximal inhibition (IC50) in experiment [2] amounted to 1230 nM; in the experiment on DU-145 it was 950 nM; in the experiment on T47D, 1880 nM.

Consider `Oc1ccccc1-c1cc(-c2ccsc2)nc2c1COc1ccccc1-2`, for which the figures for the inhibition in experiment [1], in experiment [3] and in experiment [4] were 29.7%, 3.3% and 100%, respectively. The IC50 in experiment [2] turned out to be 7170 nM; in the experiment with DU-145, 740 nM; in the experiment with T47D, 2740 nM; in the experiment with HCT-15, 3170 nM.

With `Oc1ccc(-c2cc(-c3cccc(O)c3)nc3c2COc2ccccc2-3)cc1`, the inhibition in experiment [1] came to 7.6%; in experiment [3], 1.8%; in experiment [4], 93.5%. Further, the IC50 in experiment [2] was found to be 2420 nM; with DU-145, 810 nM; in the experiment on T47D it was 670 nM; with HCT-15, 550 nM.

Take `Oc1ccc(-c2cc(-c3ccsc3)nc3c2COc2ccccc2-3)cc1`: the inhibition was 18.1% in experiment [1], 0% in experiment [3] and 100% in experiment [4]. Also, the IC50 in experiment [2] turned out to be 5830 nM; in the experiment on DU-145, 390 nM; in the experiment with T47D, 1900 nM; in the experiment on HCT-15 it was 1660 nM.

With `Oc1cccc(-c2cc(-c3ccccc3O)nc3c2COc2ccccc2-3)c1`, the inhibition in experiment [1] stood at 33.7%; in experiment [3] it was 2.4%; in experiment [4], 88.6%. For the same molecule, the IC50 turned out to be 4610 nM in experiment [2], 6370 nM in the experiment on DU-145, 3420 nM in the experiment on T47D and 2110 nM with HCT-15.

For the molecule `Oc1cccc(-c2cc(-c3ccccc3)nc3c2COc2ccccc2-3)c1`, the inhibition in experiment [1] came out at 10.9%; in experiment [3], 1.5%; in experiment [4] it was 94.8%. Further, the half-maximal inhibitory concentration (IC50) in experiment [2] amounted to 8520 nM; in the experiment on DU-145, 2330 nM; in the experiment on T47D, 760 nM; with HCT-15, 3030 nM.

In the case of `Oc1ccccc1-c1cc(-c2ccccc2O)c2c(n1)-c1ccccc1OC2`, the inhibition is 47.9% in experiment [1], 2.4% in experiment [3] and 78% in experiment [4]. The IC50 in experiment [2] is 8760 nM; with DU-145, 4690 nM; with T47D it was 2760 nM; in the experiment on HCT-15 it was 3580 nM.

As to `Oc1ccc(-c2cc(-c3ccccc3O)nc3c2COc2ccccc2-3)cc1`, the inhibition was found to be 63.2% in experiment [1], 3.8% in experiment [3] and 89.3% in experiment [4]. In addition, the IC50 in experiment [2] is 24200 nM; in the experiment with DU-145, over 50000 nM; in the experiment on T47D, 1290 nM; with HCT-15 it was 1560 nM.

Regarding `COc1cc([C@@H]2c3cc4c(cc3[C@@H](O[C@@H]3O[C@@H]5CO[C@@H](C)O[C@H]5[C@H](O)[C@H]3O)[C@H]3COC(=O)[C@H]23)OCO4)cc(OC)c1O` [ETOPOSIDE], the IC50 in experiment [2] came out at 10100 nM; in the experiment on DU-145 it was 13100 nM; in the experiment with T47D, 940 nM; in the experiment with HCT-15 it was 2600 nM.

As to `c1ccc(-c2cc(-c3ccccc3)c3c(n2)-c2ccccc2OC3)cc1`, the IC50 was 6580 nM in experiment [2] and 14200 nM in the experiment with T47D. In experiment [3], the inhibition turned out to be 0%.

With `Oc1ccc(-c2cc(-c3cccs3)nc3c2COc2ccccc2-3)cc1`, the inhibition came to 25.8% in experiment [1], 1% in experiment [3] and 91.7% in experiment [4]. For the same molecule, the IC50 in experiment [2] turned out to be 6240 nM; in the experiment with DU-145, 830 nM; in the experiment with T47D it was 1210 nM; in the experiment with HCT-15 it was 1520 nM.

With `Oc1cccc(-c2cc(-c3cccc(O)c3)c3c(n2)-c2ccccc2OC3)c1`, the inhibition in experiment [1] is 1.9%; in experiment [3] it was 4.3%; in experiment [4], 93.3%. Moreover, the IC50 was 5810 nM in experiment [2], 1580 nM with DU-145, 1770 nM with T47D and 4110 nM with HCT-15.

For the molecule `Oc1ccccc1-c1cc(-c2ccco2)nc2c1COc1ccccc1-2`, the figures for the inhibition in experiment [1], in experiment [3] and in experiment [4] were 17%, 3.9% and 91.5%, respectively. Further, the IC50 in experiment [2] is 7980 nM; in the experiment with DU-145, 2450 nM; in the experiment with T47D it was 2980 nM; in the experiment with HCT-15, 2010 nM.

Turning to `Oc1cccc(-c2cc(-c3ccco3)nc3c2COc2ccccc2-3)c1`, the inhibition was determined as 0% in experiment [1], 1.4% in experiment [3] and 84.9% in experiment [4]. Further, the concentration for half-maximal inhibition (IC50) in experiment [2] is 8800 nM; in the experiment with DU-145, 3100 nM; with T47D, 3590 nM; in the experiment with HCT-15 it was 4770 nM.

On to `Oc1ccc(-c2cc(-c3ccccc3O)c3c(n2)-c2ccccc2OC3)cc1`, for which the inhibition in experiment [1] worked out at 8%; in experiment [3], 7.6%; in experiment [4], 93.6%. The IC50 was determined as 2740 nM in experiment [2], 1950 nM with DU-145, 2090 nM in the experiment on T47D and 1660 nM in the experiment with HCT-15.

For the molecule `Oc1ccc(-c2cc(-c3ccccc3)nc3c2COc2ccccc2-3)cc1`, the inhibition in experiment [1] is 16.1%; in experiment [3] it was 2.1%; in experiment [4], 94.1%. The IC50 in experiment [2] amounted to 6350 nM; in the experiment on DU-145, 1560 nM; with T47D, 1350 nM; in the experiment with HCT-15 it was 15100 nM.

Regarding `Oc1cccc(-c2cc(-c3cccs3)nc3c2COc2ccccc2-3)c1`, the inhibition in experiment [1] was 41.2%; in experiment [3] it was 6.6%; in experiment [4], 99%. Also, the IC50 came to 6440 nM in experiment [2], 860 nM in the experiment on DU-145, 2240 nM in the experiment on T47D and 3170 nM in the experiment with HCT-15.

Regarding `Oc1ccccc1-c1cc(-c2ccccc2)nc2c1COc1ccccc1-2`, the inhibition was determined as 10% in experiment [1], 3.6% in experiment [3] and 84.7% in experiment [4]. In addition, the IC50 is 8200 nM in experiment [2], 5010 nM in the experiment on DU-145, 3820 nM in the experiment with T47D and 3470 nM with HCT-15.

On to `Oc1ccccc1-c1cc(-c2cccs2)nc2c1COc1ccccc1-2`, for which the inhibition in experiment [1] worked out at 4.8%; in experiment [3], 3.5%; in experiment [4] it was 95.7%. The IC50 in experiment [2] was 5640 nM; with DU-145, 5970 nM; in the experiment on T47D it was 2720 nM; in the experiment with HCT-15, 1940 nM.

`Oc1cccc(-c2cc(-c3ccsc3)nc3c2COc2ccccc2-3)c1`: the inhibition in experiment [1] worked out at 31.7%; in experiment [3], 68.6%; in experiment [5], 0%; in experiment [4] it was 100%. Also, the IC50 amounted to 7260 nM in experiment [2], 3000 nM in the experiment with DU-145, 1180 nM in the experiment with T47D and 1220 nM with HCT-15.

Regarding `Oc1ccc(-c2cc(-c3ccco3)nc3c2COc2ccccc2-3)cc1`, the figures for the inhibition in experiment [1], in experiment [3] and in experiment [4] were 6.8%, 0.5% and 95.6%, respectively. Moreover, the IC50 in experiment [2] was 6880 nM; in the experiment with DU-145 it was 4450 nM; with T47D, 850 nM; with HCT-15, 1230 nM.

What is called inhibition is how much of the control response was suppressed. What is called IC50 is the point on the concentration scale where inhibition reaches its midpoint. The low end stands for higher potency, the high end for lower potency.

These data come from ChEMBL document CHEMBL3611987, “Design and synthesis of conformationally constrained hydroxylated 4-phenyl-2-aryl chromenopyridines as novel and selective topoisomerase II-targeted antiproliferative agents” (Bioorg Med Chem, 2015).
